# Calls of active or inactive are those of the source. The calls are words filed in the database; no cut-off is given here.
# Legend:
# Enterococcus faecalis [1] = assay: Antibacterial activity against cephalosporins and beta-lactam-resistant Enterococcus faecalis by microdilution method; assay type: functional
# Pseudomonas aeruginosa [2] = assay: Antibacterial activity against trimethoprim-sulfamethoxazole, tazobactam-resistant Pseudomonas aeruginosa by microdilution method; assay type: functional
# Proteus mirabilis [3] = assay: Antibacterial activity against ESbetaL positive rimethoprim-sulfamethoxazole, cefepime, tazobactam-resistant Proteus mirabilis by microdilution method; assay type: functional
# Bacillus subtilis [4] = assay: Antibacterial activity against ceftriaxon-resistant Bacillus subtilis by microdilution method; assay type: functional
# Pseudomonas aeruginosa [5] = assay: Antibacterial activity against Pseudomonas aeruginosa ATCC 10145 by microdilution method; assay type: functional
# Acinetobacter baumannii [6] = assay: Antibacterial activity against Acinetobacter baumannii RSKK 02026 by microdilution method; assay type: functional
# Escherichia coli [7] = assay: Antibacterial activity against ESbetaL positive trimethoprim-sulfamethoxazole, cefepime, tazobactam-resistant Escherichia coli isolate by microdilution method; assay type: functional
# Candida parapsilosis = assay: Antifungal activity against Candida parapsilosis ATCC 22019 by microdilution method; assay type: functional
# Proteus mirabilis [8] = assay: Antibacterial activity against Proteus mirabilis ATCC 7002 by microdilution method; assay type: functional
# Staphylococcus aureus [9] = assay: Antibacterial activity against Staphylococcus aureus ATCC 25923 by microdilution method; assay type: functional
# Candida albicans = assay: Antifungal activity against Candida albicans ATCC 10231 by microdilution method; assay type: functional
# Bacillus subtilis [10] = assay: Antibacterial activity against Bacillus subtilis ATCC 6633 by microdilution method; assay type: functional
# Klebsiella pneumoniae [11] = assay: Antibacterial activity against Klebsiella pneumoniae RSKK 574 by microdilution method; assay type: functional
# Escherichia coli [12] = assay: Antibacterial activity against Escherichia coli ATCC 35218 by microdilution method; assay type: functional
# Enterococcus faecalis [13] = assay: Antibacterial activity against Enterococcus faecalis ATCC 29212 by microdilution method; assay type: functional
# Acinetobacter baumannii [14] = assay: Antibacterial activity against trimethoprim-sulfamethoxazole, cefepime-resistant Acinetobacter baumannii by microdilution method; assay type: functional
# Staphylococcus aureus [15] = assay: Antibacterial activity against oxacillin, gentamicin, aztreonam, trimethoprim-sulfamethoxazole-resistant Staphylococcus aureus by microdilution method; assay type: functional
# Klebsiella pneumoniae [16] = assay: Antibacterial activity against ESbetaL positive trimethoprim-sulfamethoxazole, amoxicillin clavulonat, cefriaxon, cephepim, aztreonam-resistant Klebsiella pneumoniae by microdilution method; assay type: functional
# [17] = Cytotoxicity against Chlorocebus aethiops (African green monkey) Vero cells assessed as maximum non-toxic concentration; assay type: cell-based; settings: chlorocebus sabaeus, read-out: MNCC
# Human respirovirus 3 [18] = assay: Antiviral activity against Human parainfluenza virus 3 infected African green monkey Vero cells assessed as concentration required to cause minimum inhibition of virus-induced cytopathic effect; assay type: functional
# [19] = Cytotoxicity against Bos taurus (bovine) MDBK cells assessed as maximum non-toxic concentration; assay type: cell-based; settings: cattle, read-out: MNCC
# Human alphaherpesvirus 1 [20] = assay: Antiviral activity against Human herpesvirus 1 infected bovine MDBK cells assessed as concentration required to cause maximum inhibition of virus-induced cytopathic effect; assay type: functional
# Human respirovirus 3 [21] = assay: Antiviral activity against Human parainfluenza virus 3 infected African green monkey Vero cells assessed as concentration required to cause maximum inhibition of virus-induced cytopathic effect; assay type: functional
# Human alphaherpesvirus 1 [22] = assay: Antiviral activity against Human herpesvirus 1 infected bovine MDBK cells assessed as concentration required to cause minimum inhibition of virus-induced cytopathic effect; assay type: functional
Compound,MIC (Enterococcus faecalis [1]),MIC (Pseudomonas aeruginosa [2]),MIC (Proteus mirabilis [3]),MIC (Bacillus subtilis [4]),MIC (Pseudomonas aeruginosa [5]),MIC (Acinetobacter baumannii [6]),MIC (Escherichia coli [7]),MIC (Candida parapsilosis),MIC (Proteus mirabilis [8]),MIC (Staphylococcus aureus [9]),MIC (Candida albicans),MIC (Bacillus subtilis [10]),MIC (Klebsiella pneumoniae [11]),MIC (Escherichia coli [12]),MIC (Enterococcus faecalis [13]),MIC (Acinetobacter baumannii [14]),MIC (Staphylococcus aureus [15]),MIC (Klebsiella pneumoniae [16]),MIC (Candida parapsilosis; Lodderomyces parapsilosis),MNTC [17],also measured
GENTAMICIN,inactive,inactive,inactive,inactive,inactive,inactive,inactive,inactive,inactive,inactive,inactive,inactive,inactive,inactive,inactive,inactive,inactive,inactive,,,
CC1COc2c(N3CCN(C)CC3)c(F)cc3c(=O)c(C(=O)O)cn1c23 (stereo not drawn) [OFLOXACIN],32 µg/mL,,1 µg/mL,inactive,,0.12 µg/mL,,inactive,< 0.12 µg/mL,0.25 µg/mL,inactive,inactive,< 0.12 µg/mL,,1 µg/mL,64 µg/mL,64 µg/mL,,,,
OC(Cn1cncn1)(Cn1cncn1)c1ccc(F)cc1F [FLUCONAZOLE],inactive,,,inactive,,,,,,inactive,2 µg/mL,inactive,,,inactive,,inactive,,4 µg/mL,,
COc1ccccc1N1CCN(Cc2oc(CCl)cc(=O)c2O)CC1,128 µg/mL,64 µg/mL,64 µg/mL,32 µg/mL,32 µg/mL,32 µg/mL,64 µg/mL,,32 µg/mL,64 µg/mL,8 µg/mL,16 µg/mL,32 µg/mL,32 µg/mL,64 µg/mL,64 µg/mL,128 µg/mL,64 µg/mL,8 µg/mL,1.6 µg/mL,Activity (Human respirovirus 3 [18]): 0.05 µg/mL; MNTC [19]: 0.8 µg/mL; Activity (Human alphaherpesvirus 1 [20]): 0.8 µg/mL; Activity (Human respirovirus 3 [21]): 0.2 µg/mL; Activity (Human alphaherpesvirus 1 [22]): 0.2 µg/mL
COc1ccc(N2CCN(Cc3oc(CCl)cc(=O)c3O)CC2)cc1,64 µg/mL,64 µg/mL,64 µg/mL,64 µg/mL,16 µg/mL,16 µg/mL,64 µg/mL,,32 µg/mL,32 µg/mL,8 µg/mL,32 µg/mL,16 µg/mL,32 µg/mL,32 µg/mL,32 µg/mL,64 µg/mL,32 µg/mL,8 µg/mL,1.6 µg/mL,Activity (Human respirovirus 3 [18]): 0.05 µg/mL; MNTC [19]: 1.6 µg/mL; Activity (Human alphaherpesvirus 1 [20]): 1.6 µg/mL; Activity (Human respirovirus 3 [21]): 0.8 µg/mL; Activity (Human alphaherpesvirus 1 [22]): 0.1 µg/mL
O=c1cc(CCl)oc(CN2CCN(c3ccc(F)cc3)CC2)c1O,32 µg/mL,64 µg/mL,64 µg/mL,32 µg/mL,32 µg/mL,32 µg/mL,64 µg/mL,,16 µg/mL,16 µg/mL,8 µg/mL,16 µg/mL,16 µg/mL,16 µg/mL,16 µg/mL,64 µg/mL,64 µg/mL,64 µg/mL,8 µg/mL,1.6 µg/mL,Activity (Human respirovirus 3 [18]): 0.025 µg/mL; MNTC [19]: 0.8 µg/mL; Activity (Human alphaherpesvirus 1 [20]): 0.8 µg/mL; Activity (Human respirovirus 3 [21]): 0.2 µg/mL; Activity (Human alphaherpesvirus 1 [22]): 0.05 µg/mL
CN[C@H](CC(C)C)C(=O)N[C@H]1C(=O)N[C@@H](CC(N)=O)C(=O)N[C@H]2C(=O)N[C@H]3C(=O)N[C@H](C(=O)N[C@H](C(=O)O)c4cc(O)cc(O)c4-c4cc3ccc4O)[C@H](O)c3ccc(c(Cl)c3)Oc3cc2cc(c3O[C@@H]2O[C@H](CO)[C@@H](O)[C@H](O)[C@H]2O[C@H]2C[C@](C)(N)[C@H](O)[C@H](C)O2)Oc2ccc(cc2Cl)[C@H]1O [VANCOMYCIN],inactive,inactive,inactive,inactive,inactive,inactive,inactive,inactive,inactive,0.12 µg/mL,inactive,inactive,inactive,inactive,inactive,inactive,,inactive,,,

# From ChEMBL document CHEMBL3045118, “Synthesis and biological activities of new Mannich bases of chlorokojic acid derivatives” (Med Chem Res, 2011)
